IC50 data for four compounds are collected here from patent US20050192356A1, “Synergistic anti-inflammatory pharmaceutical compositions and methods of use” (priority 2004, published 2005).

The test system of the experiment is PGE2 synthesis in AGS cells. In words: PGE2 synthesis in the AGS human gastric mucosal cell model (A23187). The format is cell-based. The procedure: Exponentially growing cells were seeded into 6-well plates and grown to confluence. A 20 μL aliquot of the supernatant media was sampled for determination of PGE2 content. Cells were then washed in PBS, scraped and lysed for immunoblotting.

Setting [1] is: AGS cells, historical control values, read-out: AGS IC50 for PGE2 synthesis, historical control.

Values after ≈ are worked out from the molar mass of the structure shown. Read-outs that look alike come from different tables or passages of the source.

Turning to `CS(=O)(=O)c1ccc(C2=C(c3ccccc3)C(=O)OC2)cc1` [Rofecoxib], the 50% inhibitory concentration (IC50) under setting [1] amounted to 1.8 µg/mL (≈ 5.73 µM).
As for `CC(=O)Oc1ccccc1C(=O)O` [Aspirin], the IC50 amounted to 0.52 µg/mL (≈ 2.89 µM) under setting [1] and 1.2 µg/mL (≈ 6.66 µM) (AGS cells, test material 60 minutes prior to A23187, media removed 30 minutes later, average of three independent assays, read-out: AGS IC50 for PGE2 synthesis).
`CC(C)Cc1ccc(C(C)C(=O)O)cc1` (centres unmarked) [Ibuprofen]: the IC50 under setting [1] was 0.57 µg/mL (≈ 2.76 µM).
`Cc1ccc(-c2cc(C(F)(F)F)nn2-c2ccc(S(N)(=O)=O)cc2)cc1` [Celcoxib]: the half-maximal inhibitory concentration (IC50) (AGS, read-out: AGS IC50 for PGE2 synthesis, historical control) came out at 0.024 µg/mL (≈ 0.0629 µM).

By IC50 is commonly meant the concentration that gives 50% inhibition.
